Tests used:
normal mice [1] = test: General pharmacology in mice; conditions: mouse, in vivo
Excerpt: • 1. Guidelines for Studying New Drugs (Pharmacy, Pharmacology, Toxicology), Bureau of Drug Administration, the Ministry of Health of the People's Republic of China • 2. Chen Q I, Methodology for Studying Pharmacology of Chinese Medicine, People' Medical Publishing House, 1st Edition, 1993, 118-119 III. Studies on General Pharmacology • The effects of Sequoyitol on general physical signs and spontaneous movement of normal mice, on Pentobarbital hours of sleep of mice, and on respiratory movement, blood pressure, cardiac rhythm and electrocardiogram of rats were observed.

[2] = test system: blood-sugar level of normal mice; test: Effect of Sequoyitol on blood-sugar level of normal mice; format: in vivo, Kunming mice; conditions: Sequoyitol groups (25, 50, 100 mg/kg) oral 7 days
Procedure: 1. Experimental Method^[3] • 60 Mice were randomly divided into 5 groups, […] according to 0.1 ml/10 g of body weight, respectively, and the normal group was administrated with the same volum of the same volum of distilled water. These administrations were conducted for continuous 7 days. The blood-sugar levels were detected by glucose oxidase method.

[3] = test system: mouse hyperglycemia induced by glucose; test: Effect of Sequoyitol on mouse hyperglycemia induced by glucose; format: in vivo, Kunming mice
Procedure: 1. Experimental Method^[4] • 72 Mice were randomly divided into 6 groups, […] according to 0.1 ml/10 g of body weight, respectively, and the normal group and modeling group were administrated with the same volum of distilled water. These administrations were conducted for continuous 7 days. The normal group was administrated with the same volum of physiological saline by injection, while other groups were administrated with […] of glucose by intra-abdominal injection. After 30, 60, 90 and 120 minutes of administration, bloods were collected from venous plexus behind fossa orbitalis, the serums were separated, and the blood-sugar levels were separately detected by glucose oxidase method.

normal mice [4] = test: Test of acute toxicity by oral administration; format: in vivo; conditions: 18.95 g/kg and 9.47 g/kg drenched one time; executed after 7 days
Excerpt: 1) Experimental Method • 20 Normal mice (half male and half female) were divided into two groups (each group had 10 mice), and drenched with 18.95 g/kg and 9.47 g/kg one time, wherein the higher dose reached the maximum concentration and the maximum administration volume. The animals' responses were observed. The mice were executed after 7 days, and their organs were macroscopically observed.

[5] = test system: mouse hyperglycemia induced by alloxan; test: Time-effect relation of Sequoyitol to mouse hyperglycemia induced by alloxan; format: in vivo, Kunming mice; conditions: for blood-sugar level decreased compared to the control group: Sequoyitol 50 mg/kg p.o. 7 days
Procedure: 1. Experimental Methods^[1,2] • Alloxan was administrated to each of 30 mice by caudal vein injection with a dose of 65 mg/kg, and the mice were modeled according to the method of documents, divided into 3 groups according to blood-sugar values, […] according to […] of body weight, and the modeling group was administrated with the same volum of distilled water, separately. These administrations were conducted for continuous 7 days, and the mice were fasted for 2 hours before the last administration, and their blood-sugar levels were detected by glucose oxidase method at 1 2, 3 and 5 hours after the last administration.

[6] = test system: rat hyperglycemia induced by alloxan; test: Effect of Sequoyitol on rat hyperglycemia induced by alloxan; format: in vivo, SD rats
Procedure: 1. Experimental Methods^[5,6] • 5 Rats were randomly selected as normal group, the other 55 rats were fasted for 14-16 hours, administrated with 30 mg/kg of Pentobarbital by intra-abdominal injection. After paralyzed, the rats were administrated with 48 mg/kg of alloxan by vena femoralis injection, modeled according to methods of documents, and divided into 5 groups according to blood-sugar level, wherein each group had 11 rats, and 4 groups were orally administrated with 25, 50 and 100 mg/kg of Sequoyitol and 75 mg/kg of phenformine according to 1 ml/100 g of body weight, respectively, and the normal group and modeling group were administrated with the same volum of distilled water. These administrations were conducted for continuous 18 days. The fasting blood-sugar levels of the rats were separately measured at 6th and 12th day after the administration. At the 18th day, blood was collected from arteria femoralis, and the blood sugar level, insulin level, cholesterol content, triglyceride content, malonaldehyde content, and hepatocuprein activity of serum were measured; liver tissue was homogenated, and the malonaldehyde content, and hepatocuprein activity of liver tissue were measured; and pancreatic gland was soaked in 10% formalin, embedded with paraffin, sliced, and dyed with HE.

[7] = test system: mouse hyperglycemia induced by Streptozocin; test: Effect of Sequoyitol on mouse hyperglycemia induced by Streptozocin; format: in vivo, Kunming mice
Procedure: 1. Experimental Methods^[7,8] • Among 66 mice, 10 mice were randomly selected as normal group, and the residual mice were administrated with 160 mg/kg Streptozocin by vena caudalis injection, modeled according to methods of documents, and divided into 5 groups according to blood-sugar level, wherein 4 groups were perorally administrated with 25, 50 and 100 mg/kg of Sequoyitol and 75 mg/kg of phenformine according to 0.1 ml/10 g of body weight, respectively, and the normal group and modeling group were administrated with the same volum of distilled water. These administrations were conducted for continuous 18 days. The blood-sugar levels of the mice were separately measured at 6th and 12th day after the administration. At the 18th day, blood was collected by excising eyeballs, serum was separated, and the blood sugar level, insulin level, cholesterol content, triglyceride content, malonaldehyde content, and hepatocuprein activity of serum were measured; liver tissue was homogenated, and the malonaldehyde content and hepatocuprein activity of liver tissue were measured; and pancreatic gland was soaked in 10% formalin, embedded with paraffin, sliced, and dyed with HE.

[8] = 50 and 100 mg/kg Sequoyitol groups, oral 18 days
[9] = Sequoyitol 50 mg/kg oral 18 days
[10] = Sequoyitol 100 mg/kg oral 18 days
[11] = 25 and 50 mg/kg Sequoyitol groups, p.o. 18 days
[12] = Sequoyitol 100 mg/kg p.o. 18 days
[13] = Sequoyitol groups (25, 50, 100 mg/kg p.o. 18 days)

For `COC1C(O)C(O)C(O)C(O)C1O` (stereo not drawn) [Sequoyitol, 5-O-methyl-myo-inositol], the “effect on Pentobarbital hours of sleep of mice” value (normal mice [1]) was “did not significantly affect”, the “effect on spontaneous movement of mice” value (normal mice [1]) was “did not significantly affect” and the “blood-sugar level compared with the normal group” value [2] was “not significantly different”. For the same compound, the “effect for alleviating hyperglycemia compared with phenformine” value ([3]; 100 mg/kg Sequoyitol vs 75 mg/kg phenformine) was “equivalent to that of 75 mg/kg phenformine”, the “glucose-induced hyperglycemia compared to the control group” value ([3]; 25 and 50 mg/kg Sequoyitol groups, oral 7 days, 30, 60, 90 minutes after i.p. glucose) was “significantly alleviated” and the “glucose-induced hyperglycemia compared to the control group” value ([3]; Sequoyitol 100 mg/kg oral 7 days, 30, 60, 90, 120 minutes after i.p. glucose) was “highly significantly alleviated”. For the same compound, the “blood-sugar level decreased compared to the control group” value (shortened to “blood-sugar level decreased”) ([3]; Sequoyitol 100 mg/kg oral 7 days, 90 minutes after i.p. glucose) was 24.5 mg/dL, the “main organs under macroscopic observation” value (normal mice [4]) was “free of abnormality” and the “effect of alleviating hyperglycemia compared with phenformine” value ([5]; 60 mg/kg Sequoyitol vs 75 mg/kg phenformine) was “higher than that of 75 mg/kg phenformine”. The “blood-sugar level decreased” value ([5]; 1 hour after last administration) was 100.0 mg/dL, the “blood-sugar level decreased” value ([5]; 2 hours after last administration) was 140.7 mg/dL and the “blood-sugar level decreased” value ([5]; 3 hours after last administration) was 193.9 mg/dL. For the same compound, the “blood-sugar level decreased” value ([5]; 5 hours after last administration) was 174.6 mg/dL, the “hyalinization of interstitial small vessels (histopathologic examination)” value [6, 8] was “alleviated” and the “inflammatory cell infiltration (histopathologic examination)” value [6, 8] was “reduced”. The “body weight of diabetes rats compared to the control group” value ([6]; 50 and 100 mg/kg Sequoyitol groups, oral, since the 15th day (increased at the 13th day)) was “significantly increased”, the “serum insulin level increased compared to the control group” value (shortened to “serum insulin level increased”) ([6]; Sequoyitol 25 mg/kg oral 18 days) was 1.01 μlU/ml and the “alloxan-induced hyperglycemia compared to the control group” value ([6]; Sequoyitol 25 mg/kg oral, 12th day) was “significantly alleviated”. The “blood-sugar level decreased” value ([6]; Sequoyitol 25 mg/kg oral, 18th day) was 194.4 mg/dL, the “body weight of diabetes rats compared to the control group” value ([6]; Sequoyitol 25 mg/kg oral, at the 17th day (increased at the 15th day)) was “significantly increased” and the “content of cholesterol in serum decreased compared to the control group” value [6, 9] was 22.2 mg/dL. The “content of triglyceride in serum decreased compared to the control group” value [6, 9] was 15.7 mg/dL, the “serum insulin level increased” value [6, 9] was 1.45 μl U/ml and the “blood-sugar level decreased” value ([6]; Sequoyitol 50 mg/kg oral, 6th day) was 129.1 mg/dL. For the same compound, the “blood-sugar level decreased” value ([6]; Sequoyitol 50 mg/kg oral, 12th day) was 200.7 mg/dL, the “blood-sugar level decreased” value ([6]; Sequoyitol 50 mg/kg oral, 18th day) was 223.1 mg/dL and the “activity of hepatocuprein in liver tissue increased compared to the control group” value [6, 10] was 18.3 NU/mg prot. For the same compound, the “activity of hepatocuprein in serum increased compared to the control group” value [6, 10] was 55.0 NU/ml, the “content of malonaldehyde in liver tissue decreased compared to the control group” value [6, 10] was 4.29 nmol/mg prot and the “content of malonaldehyde in serum decreased compared to the control group” value [6, 10] was 4.13 nmol/dL. The “serum insulin level increased” value [6, 10] was 3.36 μlU/ml, the “blood-sugar level decreased” value ([6]; Sequoyitol 100 mg/kg oral, 6th day) was 120 mg/dL and the “blood-sugar level decreased” value ([6]; Sequoyitol 100 mg/kg oral, 12th day) was 218.2 mg/dL. For the same compound, the “blood-sugar level decreased” value ([6]; Sequoyitol 100 mg/kg oral, 18th day) was 240.3 mg/dL, the “number of pancreatic islands and number of cells in pancreatic islands (histopathologic examination) compared to the model group” value ([6]; Sequoyitol groups (25, 50, 100 mg/kg oral 18 days)) was “increased significantly” and the “content of cholesterol in serum compared to the control group” value [7, 11] was “decreased”. The “content of malonaldehyde in liver tissue compared to the control group” value [7, 11] was “significantly decreased”, the “content of triglyceride in serum compared to the control group” value [7, 11] was “significantly decreased” and the “serum insulin level compared to the control group” value ([7]; 50 and 100 mg/kg Sequoyitol groups, p.o. 18 days) was “significantly increased”. The “body weight of diabetes mice compared to the control group” value ([7]; 50 and 100 mg/kg Sequoyitol groups, p.o., since the 7th day) was “significantly increased”, the “serum insulin level compared to the control group” value ([7]; Sequoyitol 25 mg/kg p.o. 18 days) was “increased” and the “body weight of diabetes mice compared to the control group” value ([7]; Sequoyitol 25 mg/kg p.o., since the 11th day) was “increased”. The “blood-sugar level decreased” value ([7]; Sequoyitol 50 mg/kg p.o., 12th day) was 121.4 mg/dL, the “content of cholesterol in serum compared to the control group” value [7, 12] was “significantly decreased” and the “content of malonaldehyde in liver tissue compared to the control group” value [7, 12] was “highly significantly decreased”. For the same compound, the “content of triglyceride in serum compared to the control group” value [7, 12] was “highly significantly decreased”, the “hyalinization of interstitial small vessels (histopathologic examination)” value [7, 12] was “alleviated” and the “serum insulin level increased” value [7, 12] was 6.53 μlU/ml. For the same compound, the “activity of hepatocuprein in serum compared to the control group” value [7, 13] was “highly significantly increased”, the “inflammatory cell infiltration (histopathologic examination)” value [7, 13] was “inhibited” and the “number of pancreatic islands and number of cells in pancreatic islands (histopathologic examination) compared to the model group” value [7, 13] was “increased significantly”.

— patent US20060135624A1, “Natural compound useful for treating diabetes, its preparation and use” (JINGYU LIANG ET AL, priority 2002, published 2006)
